The assay concerns the target T1, EGRAFY mutant (R91A, F188Y; SEQ ID NO: 15) (Dickeya chrysanthemi, UniProt P0C7B7, F187Y/INS163G/R91A).
T1 construct: expressed in transfected cells; host or cells: Xenopus laevis oocytes
Nature of the assay: Two-electrode voltage clamp, amine agonist activation of the EGRAFY mutant in oocytes. It is filed as cell-based, Erwinia chrysanthemi / human. As to the method:
For pH measurements, 10 mM MES was added. […] Non-linear regressions were performed using Prism software (Graphpad). […] (FIG. 2).

The source of these data is patent publication US9624288B2, “Engineered receptors and their use” (University of Pittsburgh—Of the Commonwealth System of …, priority 2012, dated 2017).

For `CCCN` [propylamine], the EC50 (commonly the concentration giving half of the maximal effect) is 1.9 ± 0.2 µM.
